Data from ChEMBL document CHEMBL3271999, “Antimycotic imidazoles. 2. Synthesis and antimycotic properties of 1-[2-(arylalkyl)-2-phenylethyl]-1H-imidazoles” (1977).
Active and inactive are the calls of the source. No cut-off for these calls is given here.

Columns and labels:
Microsporum canis = assay: Antifungal activity against Microsporum canis assessed as lowest dose level for total inhibition of fungal growth; type: functional
Trichophyton rubrum = assay: Antifungal activity against Trichophyton rubrum assessed as lowest dose level for total inhibition of fungal growth; type: functional
Saprolegnia = assay: Antifungal activity against Saprolegnia species assessed as lowest dose level for total inhibition of fungal growth; type: functional
[1] = test system: Erysipelothrix rhusiopathiae; assay: Antibacterial activity against Erysipelothrix insidiosa assessed as lowest dose level for total inhibition of bacterial growth; type: functional
Streptococcus pyogenes = assay: Antibacterial activity against Streptococcus pyogenes assessed as lowest dose level for total inhibition of bacterial growth; type: functional
Mucor = assay: Antifungal activity against Mucor species assessed as lowest dose level for total inhibition of fungal growth; type: functional
[2] = test system: Trichophyton mentagrophytes; assay: Antifungal activity against Trichophyton mentagrophytes assessed as lowest dose level for total inhibition of fungal growth; type: functional
[3] = test system: Staphylococcus haemolyticus; assay: Antibacterial activity against Staphylococcus haemolyticus assessed as lowest dose level for total inhibition of bacterial growth; type: functional
Sporothrix schenckii = assay: Antifungal activity against Sporothrix schenckii assessed as lowest dose level for total inhibition of fungal growth; type: functional
Candida albicans [4] = assay: In vivo antifungal activity against Candida albicans topically infected in guinea pig assessed as animal cured at 10 mg/kg, po; type: functional, organism-based; set-up: dose 10 mg/kg
Candida albicans [5] = assay: Antifungal activity against Candida albicans assessed as lowest dose level for total inhibition of fungal growth; type: functional
Cryptococcus neoformans = assay: Antifungal activity against Cryptococcus neoformans assessed as lowest dose level for total inhibition of fungal growth; type: functional
Phialophora verrucosa = assay: Antifungal activity against Phialophora verrucosa assessed as lowest dose level for total inhibition of fungal growth; type: functional
Candida tropicalis = assay: Antifungal activity against Candida tropicalis assessed as lowest dose level for total inhibition of fungal growth; type: functional
Aspergillus fumigatus = assay: Antifungal activity against Aspergillus fumigatus assessed as lowest dose level for total inhibition of fungal growth; type: functional

SMILES	Activity (Microsporum canis) [µg/mL]	Activity (Trichophyton rubrum) [µg/mL]	Activity (Saprolegnia) [µg/mL]	Activity [1] [µg/mL]	Activity (Streptococcus pyogenes) [µg/mL]	Activity (Mucor) [µg/mL]	Activity [2] [µg/mL]	Activity [3] [µg/mL]	Activity (Sporothrix schenckii) [µg/mL]	Activity (Candida albicans [4])	Activity (Candida albicans [5]) [µg/mL]	Activity (Cryptococcus neoformans) [µg/mL]	Activity (Phialophora verrucosa) [µg/mL]	Activity (Candida tropicalis) [µg/mL]	Activity (Aspergillus fumigatus) [µg/mL]
COc1ccc(CC(Cn2ccnc2)c2ccc(Cl)cc2Cl)cc1.O=[N+]([O-])O (stereo not given)	100	<1	100	1	1	10	<1	10	10	inactive	10	<1	10	10	100
Clc1ccc(C(Cc2ccccc2)Cn2ccnc2)c(Cl)c1.O=[N+]([O-])O (stereo not given)	10	<1	10	<1	<1	100	<1	10	10	inactive	100	<1	10	10	100
Clc1ccc(CC(Cn2ccnc2)c2c(Cl)cccc2Cl)cc1.O=[N+]([O-])O (stereo not given)	<1	<1	100	<1	<1	>100	<1	100	100	inactive	100	100	100	>100	100
Clc1ccccc1CC(Cn1ccnc1)c1ccccc1Cl.O=[N+]([O-])O (stereo not given)	10	<1	100	1	<1	100	<1	100	10	inactive	100	<1	100	>100	10
Clc1ccc(CC(Cn2ccnc2)c2c(Cl)cccc2Cl)c(Cl)c1.O=[N+]([O-])O (stereo not given)	10	<1	100	1	<1	100	10	10	10	inactive	>100	10	>100	>100	100
COc1ccc(CCC(Cn2ccnc2)c2ccc(Cl)cc2Cl)cc1.O=[N+]([O-])O (stereo not given)	10	<1	10	<1	<1	100	<1	1	10	inactive	>100	<1	10	>100	100
Clc1ccc(CC(Cn2ccnc2)c2ccc(Cl)cc2Cl)c(Cl)c1.O=[N+]([O-])O (stereo not given)	10	<1	100	<1	<1	100	<1	10	<1	inactive	10	<1	100	10	100
Clc1ccc(CCC(Cn2ccnc2)c2ccc(Cl)cc2Cl)cc1.O=[N+]([O-])O (stereo not given)	10	<1	10	<1	<1	100	<1	1	<1	inactive	10	<1	10	10	100
Clc1ccc(C(CCc2ccccc2)Cn2ccnc2)c(Cl)c1.O=[N+]([O-])O (stereo not given)	10	<1	10	<1	<1	100	<1	1	10	inactive	100	<1	10	>100	100
Clc1ccc(CC(Cn2ccnc2)c2ccc(Cl)cc2Cl)cc1.O=[N+]([O-])O (stereo not given)	10	<1	<1	<1	<1	100	<1	10	10	inactive	100	<1	100	100	100
Clc1ccc(CC(Cn2ccnc2)c2ccccc2Br)c(Cl)c1.O=[N+]([O-])O (stereo not given)	10	<1	100	<1	10	10	<1	<1	10	inactive	10	<1	100	100	10
Clc1ccc(CC(Cn2ccnc2)c2ccccc2Cl)c(Cl)c1.O=[N+]([O-])O (stereo not given)	10	<1	100	10	<1	100	<1	100	10	inactive	100	<1	100	>100	100
Clc1ccc(C(Cc2ccc(Br)cc2)Cn2ccnc2)c(Cl)c1.O=[N+]([O-])O (stereo not given)	10	<1	100	<1	<1	10	<1	10	10	inactive	10	<1	10	10	100
Clc1ccc(CC(Cn2ccnc2)c2ccccc2Cl)cc1.O=[N+]([O-])O (stereo not given)	10	<1	100	1	1	100	<1	100	10	Active	10	<1	100	>100	100
Clc1ccc(C(Cc2ccccc2Cl)Cn2ccnc2)cc1.O=[N+]([O-])O (stereo not given)	10	<1	100	1	10	10	<1	10	100	inactive	100	<1	100	100	100
